What was measured:
[1] = molecular target: Casein kinase I isoform alpha (Homo sapiens) (UniProt P48729); assay: Residual activity of CK1alpha1 at 1 uM by microplate scintillation counting
[2] = molecular target: Casein kinase I isoform gamma-1 (Homo sapiens) (UniProt Q9HCP0); assay: Residual activity of CK1gamma1 at 1 uM by microplate scintillation counting
[3] = molecular target: T1, Ephrin type-A receptor 3 (Homo sapiens) (UniProt P29320); assay: Residual activity of EPHA3 at 1 uM by microplate scintillation counting
T1 sequence (whole entry): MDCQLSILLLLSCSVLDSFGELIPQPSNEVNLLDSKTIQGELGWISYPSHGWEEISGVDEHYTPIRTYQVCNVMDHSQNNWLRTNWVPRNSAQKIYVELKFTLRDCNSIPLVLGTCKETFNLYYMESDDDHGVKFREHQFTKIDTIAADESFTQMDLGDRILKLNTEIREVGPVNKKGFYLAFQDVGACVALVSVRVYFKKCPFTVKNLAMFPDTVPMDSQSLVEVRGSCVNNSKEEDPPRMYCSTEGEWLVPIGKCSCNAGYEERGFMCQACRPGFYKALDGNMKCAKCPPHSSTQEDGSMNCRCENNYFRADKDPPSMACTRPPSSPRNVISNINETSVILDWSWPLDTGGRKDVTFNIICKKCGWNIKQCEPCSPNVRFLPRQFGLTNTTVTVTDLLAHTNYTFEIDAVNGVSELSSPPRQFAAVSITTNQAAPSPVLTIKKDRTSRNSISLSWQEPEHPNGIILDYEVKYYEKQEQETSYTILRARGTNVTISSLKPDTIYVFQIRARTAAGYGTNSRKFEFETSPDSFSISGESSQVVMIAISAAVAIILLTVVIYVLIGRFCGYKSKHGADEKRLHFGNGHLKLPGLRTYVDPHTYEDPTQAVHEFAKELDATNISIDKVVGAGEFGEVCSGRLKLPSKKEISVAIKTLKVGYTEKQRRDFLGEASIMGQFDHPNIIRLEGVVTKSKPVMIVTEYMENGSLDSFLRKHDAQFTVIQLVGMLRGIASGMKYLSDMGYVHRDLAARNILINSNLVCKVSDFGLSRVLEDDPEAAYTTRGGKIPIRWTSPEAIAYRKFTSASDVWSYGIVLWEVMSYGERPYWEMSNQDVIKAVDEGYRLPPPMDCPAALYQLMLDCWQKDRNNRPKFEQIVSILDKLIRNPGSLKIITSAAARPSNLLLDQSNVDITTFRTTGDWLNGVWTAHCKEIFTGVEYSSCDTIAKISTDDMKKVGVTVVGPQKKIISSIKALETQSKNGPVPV

[4] = molecular target: Protein kinase C beta type (Homo sapiens) (UniProt P05771); assay: Residual activity of PKCbeta1 at 1 uM by microplate scintillation counting
[5] = molecular target: Tyrosine-protein kinase Fes/Fps (Homo sapiens) (UniProt P07332); assay: Residual activity of FES at 0.1 uM by microplate scintillation counting
[6] = molecular target: Receptor-type tyrosine-protein kinase FLT3 (Homo sapiens) (UniProt P36888); assay: Residual activity of wild type FLT3 at 0.1 uM by microplate scintillation counting
[7] = system: Mast/stem cell growth factor receptor Kit (Homo sapiens), P10721 [T670I]; assay: Residual activity of KIT T670I mutant at 0.1 uM by microplate scintillation counting
[8] = molecular target: High affinity nerve growth factor receptor (Homo sapiens) (UniProt P04629); assay: Residual activity of TRK-A at 1 uM by microplate scintillation counting
[9] = molecular target: Casein kinase I isoform gamma-1 (Homo sapiens) (UniProt Q9HCP0); assay: Residual activity of CK1gamma1 at 10 uM by microplate scintillation counting
[10] = molecular target: Ephrin type-A receptor 2 (Homo sapiens) (UniProt P29317); assay: Residual activity of EPHA2 at 10 uM by microplate scintillation counting
[11] = molecular target: Tyrosine-protein kinase JAK2 (Homo sapiens) (UniProt O60674); assay: Residual activity of JAK2 at 10 uM by microplate scintillation counting
[12] = molecular target: Serine/threonine-protein kinase WNK2 (Homo sapiens) (UniProt Q9Y3S1); assay: Residual activity of WNK2 at 0.1 uM by microplate scintillation counting
[13] = molecular target: T2, Myotonin-protein kinase (Homo sapiens) (UniProt Q09013); assay: Residual activity of DMPK at 0.1 uM by microplate scintillation counting
T2 sequence (whole entry): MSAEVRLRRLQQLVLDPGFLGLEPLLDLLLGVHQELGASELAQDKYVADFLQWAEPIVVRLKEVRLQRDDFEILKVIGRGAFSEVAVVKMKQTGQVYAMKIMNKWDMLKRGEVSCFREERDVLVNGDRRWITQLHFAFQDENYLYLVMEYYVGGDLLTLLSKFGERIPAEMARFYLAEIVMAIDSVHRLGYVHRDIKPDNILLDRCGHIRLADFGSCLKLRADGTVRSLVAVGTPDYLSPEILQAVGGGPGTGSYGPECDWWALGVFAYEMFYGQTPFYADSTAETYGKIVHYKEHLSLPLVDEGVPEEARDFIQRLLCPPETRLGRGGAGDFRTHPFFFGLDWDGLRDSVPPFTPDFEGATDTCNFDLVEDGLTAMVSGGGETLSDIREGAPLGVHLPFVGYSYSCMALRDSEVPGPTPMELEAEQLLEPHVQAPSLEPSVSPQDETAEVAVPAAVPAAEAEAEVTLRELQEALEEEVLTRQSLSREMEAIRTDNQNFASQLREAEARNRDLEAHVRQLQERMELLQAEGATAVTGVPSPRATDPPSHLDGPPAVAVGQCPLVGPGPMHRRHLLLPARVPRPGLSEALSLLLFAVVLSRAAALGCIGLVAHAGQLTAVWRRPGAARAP

[14] = molecular target: Ephrin type-A receptor 4 (Homo sapiens) (UniProt P54764); assay: Residual activity of EPHA4 at 0.1 uM by microplate scintillation counting
[15] = molecular target: Serine/threonine-protein kinase N1 (Homo sapiens) (UniProt Q16512); assay: Residual activity of PRK1 at 10 uM by microplate scintillation counting
[16] = molecular target: Proto-oncogene tyrosine-protein kinase Src (Homo sapiens) (UniProt P12931); assay: Residual activity of SRC at 10 uM by microplate scintillation counting
Proto-oncogene tyrosine-protein kinase Src (Homo sapiens), sequence (P12931 2-536 limits assumed): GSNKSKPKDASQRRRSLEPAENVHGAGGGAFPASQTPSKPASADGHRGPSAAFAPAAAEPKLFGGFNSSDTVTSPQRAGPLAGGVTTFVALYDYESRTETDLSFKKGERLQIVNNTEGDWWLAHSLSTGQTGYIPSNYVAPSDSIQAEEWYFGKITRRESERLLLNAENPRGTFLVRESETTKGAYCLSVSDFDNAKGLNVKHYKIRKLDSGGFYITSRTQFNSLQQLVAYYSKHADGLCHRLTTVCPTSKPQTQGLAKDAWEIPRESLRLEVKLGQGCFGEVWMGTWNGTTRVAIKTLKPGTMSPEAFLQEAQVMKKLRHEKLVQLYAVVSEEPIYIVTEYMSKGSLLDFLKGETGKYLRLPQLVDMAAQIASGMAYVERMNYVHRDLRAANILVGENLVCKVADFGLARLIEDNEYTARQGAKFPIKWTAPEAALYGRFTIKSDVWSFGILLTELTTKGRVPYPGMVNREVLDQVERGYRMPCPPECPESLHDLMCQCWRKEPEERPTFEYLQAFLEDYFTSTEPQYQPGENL

Tyrosine-protein kinase JAK2 (Homo sapiens), sequence (O60674 whole entry): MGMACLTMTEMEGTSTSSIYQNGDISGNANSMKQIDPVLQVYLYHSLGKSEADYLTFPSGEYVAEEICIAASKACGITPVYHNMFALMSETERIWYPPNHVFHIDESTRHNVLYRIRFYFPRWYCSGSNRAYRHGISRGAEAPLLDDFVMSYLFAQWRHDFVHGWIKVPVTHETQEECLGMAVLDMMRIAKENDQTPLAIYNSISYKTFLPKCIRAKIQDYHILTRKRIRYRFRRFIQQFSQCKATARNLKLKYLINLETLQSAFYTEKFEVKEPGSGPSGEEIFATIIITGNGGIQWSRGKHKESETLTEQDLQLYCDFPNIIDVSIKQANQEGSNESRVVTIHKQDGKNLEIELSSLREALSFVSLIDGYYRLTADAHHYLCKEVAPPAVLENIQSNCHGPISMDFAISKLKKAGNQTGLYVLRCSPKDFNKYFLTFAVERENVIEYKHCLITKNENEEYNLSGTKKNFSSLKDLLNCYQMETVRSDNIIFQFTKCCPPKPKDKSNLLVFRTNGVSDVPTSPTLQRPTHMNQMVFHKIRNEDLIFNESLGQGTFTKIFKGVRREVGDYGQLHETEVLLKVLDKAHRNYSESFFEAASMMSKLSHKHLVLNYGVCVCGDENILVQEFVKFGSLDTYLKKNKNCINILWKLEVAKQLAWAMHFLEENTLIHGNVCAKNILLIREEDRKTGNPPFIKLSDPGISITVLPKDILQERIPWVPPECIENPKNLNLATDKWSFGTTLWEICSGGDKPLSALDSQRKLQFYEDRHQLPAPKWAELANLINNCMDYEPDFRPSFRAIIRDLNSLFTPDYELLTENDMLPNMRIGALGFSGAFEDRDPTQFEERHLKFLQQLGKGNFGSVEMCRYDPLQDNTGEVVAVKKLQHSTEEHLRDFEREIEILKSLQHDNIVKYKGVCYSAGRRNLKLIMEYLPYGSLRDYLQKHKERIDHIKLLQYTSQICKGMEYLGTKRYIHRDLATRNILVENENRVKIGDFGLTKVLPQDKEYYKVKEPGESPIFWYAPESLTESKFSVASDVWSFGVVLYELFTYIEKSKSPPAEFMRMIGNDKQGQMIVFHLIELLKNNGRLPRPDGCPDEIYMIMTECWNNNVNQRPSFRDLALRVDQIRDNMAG
Casein kinase I isoform alpha (Homo sapiens), sequence (P48729 2-337 limits assumed): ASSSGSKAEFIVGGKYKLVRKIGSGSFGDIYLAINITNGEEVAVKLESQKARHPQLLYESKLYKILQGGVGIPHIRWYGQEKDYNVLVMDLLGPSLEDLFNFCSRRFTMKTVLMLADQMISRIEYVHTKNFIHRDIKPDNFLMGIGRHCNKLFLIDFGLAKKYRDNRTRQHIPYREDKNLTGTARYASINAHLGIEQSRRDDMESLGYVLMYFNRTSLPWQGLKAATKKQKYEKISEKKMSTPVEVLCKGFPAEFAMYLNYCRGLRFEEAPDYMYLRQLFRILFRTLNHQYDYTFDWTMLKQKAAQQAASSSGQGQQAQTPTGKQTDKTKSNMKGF
Casein kinase I isoform gamma-1 (Homo sapiens), sequence (Q9HCP0 whole entry, looked up, canonical isoform): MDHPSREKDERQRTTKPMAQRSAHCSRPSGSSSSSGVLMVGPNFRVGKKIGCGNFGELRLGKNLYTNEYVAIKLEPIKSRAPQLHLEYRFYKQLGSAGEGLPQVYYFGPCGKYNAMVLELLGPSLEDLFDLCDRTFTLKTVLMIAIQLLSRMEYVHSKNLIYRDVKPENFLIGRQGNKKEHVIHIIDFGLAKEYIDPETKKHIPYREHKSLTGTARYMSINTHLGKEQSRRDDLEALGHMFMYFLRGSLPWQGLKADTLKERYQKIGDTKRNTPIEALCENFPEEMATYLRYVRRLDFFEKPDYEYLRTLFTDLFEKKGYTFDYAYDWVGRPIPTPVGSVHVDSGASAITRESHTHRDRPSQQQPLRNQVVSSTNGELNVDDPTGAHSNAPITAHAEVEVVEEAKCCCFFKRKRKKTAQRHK
Mast/stem cell growth factor receptor Kit (Homo sapiens), P10721 [T670I], sequence (P10721 whole entry T670I): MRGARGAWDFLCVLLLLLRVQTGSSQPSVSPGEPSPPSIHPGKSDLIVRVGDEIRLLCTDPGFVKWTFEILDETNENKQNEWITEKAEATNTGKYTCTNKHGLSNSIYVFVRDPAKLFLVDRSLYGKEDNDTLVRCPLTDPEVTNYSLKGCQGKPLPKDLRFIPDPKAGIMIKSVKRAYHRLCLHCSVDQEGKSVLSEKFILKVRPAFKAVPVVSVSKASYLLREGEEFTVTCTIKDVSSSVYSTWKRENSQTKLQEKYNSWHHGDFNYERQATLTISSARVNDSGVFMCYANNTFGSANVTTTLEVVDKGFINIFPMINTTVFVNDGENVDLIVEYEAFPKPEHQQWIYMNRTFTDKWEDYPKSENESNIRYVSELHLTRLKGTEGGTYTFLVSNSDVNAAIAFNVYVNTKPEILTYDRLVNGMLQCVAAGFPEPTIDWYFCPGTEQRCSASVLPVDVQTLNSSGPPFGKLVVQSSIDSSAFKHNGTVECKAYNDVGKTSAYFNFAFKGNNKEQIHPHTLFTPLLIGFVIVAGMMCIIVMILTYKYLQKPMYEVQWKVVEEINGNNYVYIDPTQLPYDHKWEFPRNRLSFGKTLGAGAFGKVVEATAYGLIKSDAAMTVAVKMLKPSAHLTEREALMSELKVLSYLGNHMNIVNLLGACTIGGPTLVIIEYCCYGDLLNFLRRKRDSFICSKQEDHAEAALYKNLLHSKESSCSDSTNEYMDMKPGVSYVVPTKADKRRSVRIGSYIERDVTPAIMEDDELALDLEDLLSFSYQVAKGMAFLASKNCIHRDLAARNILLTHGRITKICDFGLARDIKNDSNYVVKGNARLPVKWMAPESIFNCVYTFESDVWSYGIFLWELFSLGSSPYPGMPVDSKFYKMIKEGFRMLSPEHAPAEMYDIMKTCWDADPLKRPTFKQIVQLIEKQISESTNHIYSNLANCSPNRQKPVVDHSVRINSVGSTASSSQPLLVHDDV
Tyrosine-protein kinase Fes/Fps (Homo sapiens), sequence (P07332 whole entry): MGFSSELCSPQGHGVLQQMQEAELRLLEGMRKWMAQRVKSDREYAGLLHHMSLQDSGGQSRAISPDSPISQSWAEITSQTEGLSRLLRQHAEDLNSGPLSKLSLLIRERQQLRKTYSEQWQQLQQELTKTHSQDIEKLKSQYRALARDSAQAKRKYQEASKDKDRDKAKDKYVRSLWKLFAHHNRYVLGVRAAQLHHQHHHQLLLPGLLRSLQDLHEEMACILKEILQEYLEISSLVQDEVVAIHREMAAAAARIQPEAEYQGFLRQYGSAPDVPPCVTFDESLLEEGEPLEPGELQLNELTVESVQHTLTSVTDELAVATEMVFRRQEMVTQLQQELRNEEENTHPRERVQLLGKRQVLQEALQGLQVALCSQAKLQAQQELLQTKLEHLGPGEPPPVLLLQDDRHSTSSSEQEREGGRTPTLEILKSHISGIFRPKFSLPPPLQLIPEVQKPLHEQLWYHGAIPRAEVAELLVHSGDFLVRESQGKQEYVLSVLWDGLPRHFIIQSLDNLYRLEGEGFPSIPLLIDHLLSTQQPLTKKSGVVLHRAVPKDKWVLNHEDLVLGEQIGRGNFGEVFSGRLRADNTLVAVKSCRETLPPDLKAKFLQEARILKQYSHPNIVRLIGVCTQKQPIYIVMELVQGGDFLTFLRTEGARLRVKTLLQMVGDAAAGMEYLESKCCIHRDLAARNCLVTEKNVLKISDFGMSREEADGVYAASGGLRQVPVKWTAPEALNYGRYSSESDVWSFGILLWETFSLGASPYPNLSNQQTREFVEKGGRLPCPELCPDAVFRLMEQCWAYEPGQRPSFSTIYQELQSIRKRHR
High affinity nerve growth factor receptor (Homo sapiens), sequence (P04629 33-796 limits assumed): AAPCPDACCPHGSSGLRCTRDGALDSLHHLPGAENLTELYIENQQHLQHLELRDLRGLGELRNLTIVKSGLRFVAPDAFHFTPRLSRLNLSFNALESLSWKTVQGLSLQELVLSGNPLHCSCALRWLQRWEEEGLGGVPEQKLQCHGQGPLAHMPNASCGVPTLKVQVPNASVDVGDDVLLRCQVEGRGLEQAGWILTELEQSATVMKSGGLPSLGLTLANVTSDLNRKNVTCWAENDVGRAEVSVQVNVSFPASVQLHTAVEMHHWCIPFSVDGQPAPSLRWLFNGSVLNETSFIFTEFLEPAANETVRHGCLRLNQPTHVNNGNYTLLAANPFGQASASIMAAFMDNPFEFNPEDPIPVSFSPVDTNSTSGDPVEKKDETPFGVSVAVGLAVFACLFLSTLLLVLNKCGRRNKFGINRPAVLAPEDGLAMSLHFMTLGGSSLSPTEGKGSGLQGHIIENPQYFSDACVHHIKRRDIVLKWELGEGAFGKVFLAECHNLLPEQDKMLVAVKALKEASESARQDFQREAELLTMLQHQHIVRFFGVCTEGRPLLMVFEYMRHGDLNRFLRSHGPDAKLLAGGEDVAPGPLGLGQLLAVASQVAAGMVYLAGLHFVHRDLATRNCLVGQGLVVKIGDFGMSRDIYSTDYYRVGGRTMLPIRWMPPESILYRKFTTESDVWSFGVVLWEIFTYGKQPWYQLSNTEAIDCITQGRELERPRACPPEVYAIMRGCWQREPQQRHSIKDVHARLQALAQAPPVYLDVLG

Row | residual activity [1] [%] | residual activity [2] [%] | residual activity [3] [%] | residual activity [4] [%] | residual activity [5] [%] | residual activity [6] [%] | residual activity [7] [%] | residual activity [8] [%] | residual activity [9] [%] | residual activity [10] [%] | residual activity [11] [%] | residual activity [12] [%] | residual activity [13] [%] | residual activity [14] [%] | residual activity [15] [%] | residual activity [16] [%] | Structure (SMILES)
1 | 102 | 97 | 90 | 105 | 107 | 95 | 113 | 72 | 200 | 187 | 67 | 81 | 110 | 93 | 68 | 83 | COc1cc2c(Oc3ccc(-c4nc5ccccc5s4)cc3)ncnc2cc1OCCCN1CCCC1
2 | 99 | 112 | 96 | 108 | 102 | 112 | 103 | 83 | 256 | 190 | 67 | 74 | 128 | 103 | 83 | 75 | COc1cc2c(Oc3ccc(-c4nc5ccccc5s4)cc3)ncnc2cc1OCCCN1CCN(C)CC1
3 | 103 | 110 | 96 | 103 | 101 | 130 | 97 | 86 | 229 | 73 | 60 | 87 | 102 | 93 | 91 | 45 | COc1cc2c(Oc3ccc(-c4nc5ccccc5s4)cc3F)ncnc2cc1OCCCN1CCN(C)CC1

From ChEMBL document CHEMBL1152560, “Substituted 2-arylbenzothiazoles as kinase inhibitors: hit-to-lead optimization” (Bioorg Med Chem, 2009)
